Values of other authors, collected in US20230310317A1, “SOL-GEL COMPOSITION” (THE UNIVERSITY OF QUEENSLAND, priority 2020, published 2023).

Conditions: aqueous media e.g. gel-based systems

- Solubility in aqueous media: practically insoluble
SMILES: C[C@@H]1C[C@H]2[C@@H]3CCC4=CC(=O)C=C[C@]4(C)[C@@]3(Cl)[C@@H](O)C[C@]2(C)[C@@]1(OC(=O)c1ccco1)C(=O)CCl [MF, mometasone furoate]
